Measured values published in patent publication US20030097692A1, “Plants with imidazolinone-resistant ALS” (priority 2000, published 2003).

Test system: Arabidopsis seedlings
Experiment: Dose-response of imazethapyr spray on 7-day-old Arabidopsis seedlings (foliar damage)
Format: in vivo, Arabidopsis thaliana
Conditions: repeated dose-response experiments, spray application, scored for foliar damage at 16 days post-treatment
Protocol: EMS-mutagenized M2 generation Arabidopsis thaliana (cv. Col-0) seeds were obtained from Lehle Seeds, Round Rock, Texas under catalog number M2E02-02. Flats were seeded to provide approximately one million ems-mutagenized seeds. The seeded flats were then watered by sub-irrigation, covered with transparent plastic domes, and maintained at 4° C. and 70% relative humidity for 4 days in the dark. At the end of this period the growth chamber conditions were reset to 21° C., 70% relative humidity under a 16 hour photoperiod, with soil-surface light intensity adjusted to approximately 150 uEinsteins/m^2/s. The flats were maintained under these conditions for seven days prior to imazethapyr, an imidazolinone treatments. The plastic domes were removed 2 days before the treatments to acclimate the plants to ambient humidity.
Based on repeated dose-response experiments using 7-day-old Arabidopsis seedlings grown under the conditions described above, it was determined that the I100 for imazethapyr was approximately 0.035 lbs. active ingredient per acre (a.i./acre). EMS-mutagenized seedlings were screened at a rate equivalent to approximately twice the 1100 value, or 0.07 lbs. a.i./acre. […] Seedlings were then returned to the growth chamber, and scored for foliar damage at 16 days post-treatment.

Structure (SMILES): CCc1cnc(C2=NC(C)(C(C)C)C(=O)N2)c(C(=O)O)c1 (stereo not shown) [imazethapyr, 2-[4,5-dihydro-4-methyl-4-(1-methylethyl)-5-oxo-1H-imidazol-2-yl]-5-ethyl-3-pyridinecarboxylic acid]
- I100: approximately 0.035 lbs. active ingredient per acre
